Data taken from ChEMBL document CHEMBL5346973 (J Med Chem, 2023).
Where a SMILES comes first, the peptide text is derived from it.

molecular target: Nicotinic acetylcholine receptor alpha9/alpha10 (Rattus norvegicus, UniProt P43144+Q9JLB5); test: Antagonist activity at rat alpha9alpha10 nACh receptor expressed in Xenopus oocyte assessed as inhibition of acetylcholine-induced response at -70 mV holding potential by voltage-clamp based electrophysiological assay; format: cell-based
Sequence (P43144 whole entry): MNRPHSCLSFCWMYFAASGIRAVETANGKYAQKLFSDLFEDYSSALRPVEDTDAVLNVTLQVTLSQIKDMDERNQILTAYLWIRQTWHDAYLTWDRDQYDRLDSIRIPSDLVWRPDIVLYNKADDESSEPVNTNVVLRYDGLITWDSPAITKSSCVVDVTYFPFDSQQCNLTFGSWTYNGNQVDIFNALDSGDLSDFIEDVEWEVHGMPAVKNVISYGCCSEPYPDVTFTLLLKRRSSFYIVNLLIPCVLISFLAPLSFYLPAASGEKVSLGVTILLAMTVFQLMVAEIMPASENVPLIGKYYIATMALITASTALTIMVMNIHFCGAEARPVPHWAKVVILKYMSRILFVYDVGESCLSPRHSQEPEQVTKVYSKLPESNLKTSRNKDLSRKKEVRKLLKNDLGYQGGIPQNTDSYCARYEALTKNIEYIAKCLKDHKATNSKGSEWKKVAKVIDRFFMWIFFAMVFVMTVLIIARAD
Sequence (Q9JLB5 whole entry): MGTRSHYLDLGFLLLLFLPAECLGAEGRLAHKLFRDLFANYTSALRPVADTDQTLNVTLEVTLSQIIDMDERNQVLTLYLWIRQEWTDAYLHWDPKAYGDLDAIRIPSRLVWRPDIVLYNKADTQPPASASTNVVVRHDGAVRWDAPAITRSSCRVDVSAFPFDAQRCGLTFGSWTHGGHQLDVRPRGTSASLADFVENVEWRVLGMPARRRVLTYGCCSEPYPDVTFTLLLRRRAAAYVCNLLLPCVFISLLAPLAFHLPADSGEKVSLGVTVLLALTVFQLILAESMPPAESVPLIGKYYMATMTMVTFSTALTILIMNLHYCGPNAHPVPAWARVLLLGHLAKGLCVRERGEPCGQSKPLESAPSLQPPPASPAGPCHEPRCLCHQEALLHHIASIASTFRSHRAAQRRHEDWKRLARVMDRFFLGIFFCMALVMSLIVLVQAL

In order of falling IC50:
1. CC[C@H](C)[C@@H]1NC(=O)[C@H](CCCNC(=N)N)NC(=O)[C@H](CCCNC(=N)N)NC(=O)[C@@H](NC(=O)[C@H](Cc2ccc(O)cc2)NC(=O)[C@H](CCCNC(=N)N)NC(=O)[C@H](CCCNC(=N)N)NC(=O)[C@H](CCCNC(=N)N)NC(=O)[C@H](CCCNC(=N)N)NC(=O)[C@H](CC(=O)O)NC(=O)[C@H](Cc2ccc(O)cc2)NC(=O)[C@@H]2CCCN2C(=O)[C@H](CO)NC(=O)[C@H](C)NC(=O)[C@@H]2CSSC[C@H](NC(=O)[C@@H](N)[C@@H](C)O)C(=O)N[C@@H](C)C(=O)N[C@@H](CO)C(=O)N[C@@H](CO)C(=O)NCC(=O)N[C@@H](CCCNC(=N)N)C(=O)N[C@@H](Cc3ccc(O)cc3)C(=O)N2)CSSC[C@@H](C(=O)N[C@H](C(=O)O)C(C)C)NC(=O)[C@H](C)NC(=O)[C@H](CC(=O)O)NC(=O)[C@H]([C@@H](C)O)NC1=O (HELM PEPTIDE1{T.C.A.S.S.G.R.Y.C.A.S.P.Y.D.R.R.R.R.Y.C.R.R.I.T.D.A.C.V}$PEPTIDE1,PEPTIDE1,2:R3-9:R3|PEPTIDE1,PEPTIDE1,20:R3-27:R3$$$V2.0)  590 nM
2. CC[C@H](C)[C@@H]1NC(=O)[C@H](CCCNC(=N)N)NC(=O)[C@H](CCCNC(=N)N)NC(=O)[C@@H](NC(=O)[C@H](Cc2ccc(O)cc2)NC(=O)[C@H](C)NC(=O)[C@H](CCCNC(=N)N)NC(=O)[C@H](C)NC(=O)[C@H](CCCNC(=N)N)NC(=O)[C@H](CC(=O)O)NC(=O)[C@H](Cc2ccc(O)cc2)NC(=O)[C@@H]2CCCN2C(=O)[C@H](CO)NC(=O)[C@H](CCCNC(=N)N)NC(=O)[C@@H]2CSSC[C@H](NC(=O)[C@@H](N)[C@@H](C)O)C(=O)N[C@@H](CCCNC(=N)N)C(=O)N[C@@H](CO)C(=O)N[C@@H](CO)C(=O)NCC(=O)N[C@@H](CCCNC(=N)N)C(=O)N[C@@H](Cc3ccc(O)cc3)C(=O)N2)CSSC[C@@H](C(=O)N[C@H](C(=O)O)C(C)C)NC(=O)[C@H](C)NC(=O)[C@H](CC(=O)O)NC(=O)[C@H]([C@@H](C)O)NC1=O  410 nM
3. CC[C@H](C)[C@@H]1NC(=O)[C@H](CCCNC(=N)N)NC(=O)[C@H](CCCNC(=N)N)NC(=O)[C@@H](NC(=O)[C@H](Cc2ccc(O)cc2)NC(=O)[C@H](CCCNC(=N)N)NC(=O)[C@H](CCCNC(=N)N)NC(=O)[C@H](CCCNC(=N)N)NC(=O)[C@H](CCCNC(=N)N)NC(=O)[C@H](CC(=O)O)NC(=O)[C@H](Cc2ccc(O)cc2)NC(=O)[C@@H]2CCCN2C(=O)[C@H](CO)NC(=O)[C@H](CCCNC(=N)N)NC(=O)[C@@H]2CSSC[C@H](NC(=O)[C@@H](N)[C@@H](C)O)C(=O)N[C@@H](C)C(=O)N[C@@H](CO)C(=O)N[C@@H](CO)C(=O)NCC(=O)N[C@@H](C)C(=O)N[C@@H](Cc3ccc(O)cc3)C(=O)N2)CSSC[C@@H](C(=O)N[C@H](C(=O)O)C(C)C)NC(=O)[C@H](C)NC(=O)[C@H](CC(=O)O)NC(=O)[C@H]([C@@H](C)O)NC1=O (HELM PEPTIDE1{T.C.A.S.S.G.A.Y.C.R.S.P.Y.D.R.R.R.R.Y.C.R.R.I.T.D.A.C.V}$PEPTIDE1,PEPTIDE1,2:R3-9:R3|PEPTIDE1,PEPTIDE1,20:R3-27:R3$$$V2.0)  370 nM
4. CC[C@H](C)[C@@H]1NC(=O)[C@H](CCCNC(=N)N)NC(=O)[C@H](CCCNC(=N)N)NC(=O)[C@@H](NC(=O)[C@H](Cc2ccc(O)cc2)NC(=O)[C@H](C)NC(=O)[C@H](CCCNC(=N)N)NC(=O)[C@H](CCCNC(=N)N)NC(=O)[C@H](C)NC(=O)[C@H](CC(=O)O)NC(=O)[C@H](Cc2ccc(O)cc2)NC(=O)[C@@H]2CCCN2C(=O)[C@H](CO)NC(=O)[C@H](CCCNC(=N)N)NC(=O)[C@@H]2CSSC[C@H](NC(=O)[C@@H](N)[C@@H](C)O)C(=O)N[C@@H](CCCNC(=N)N)C(=O)N[C@@H](CO)C(=O)N[C@@H](CO)C(=O)NCC(=O)N[C@@H](CCCNC(=N)N)C(=O)N[C@@H](Cc3ccc(O)cc3)C(=O)N2)CSSC[C@@H](C(=O)N[C@H](C(=O)O)C(C)C)NC(=O)[C@H](C)NC(=O)[C@H](CC(=O)O)NC(=O)[C@H]([C@@H](C)O)NC1=O  350 nM
5. CC[C@H](C)[C@@H]1NC(=O)[C@H](CCCNC(=N)N)NC(=O)[C@H](CCCNC(=N)N)NC(=O)[C@@H](NC(=O)[C@H](Cc2ccc(O)cc2)NC(=O)[C@H](CCCNC(=N)N)NC(=O)[C@H](C)NC(=O)[C@H](CCCNC(=N)N)NC(=O)[C@H](C)NC(=O)[C@H](CC(=O)O)NC(=O)[C@H](Cc2ccc(O)cc2)NC(=O)[C@@H]2CCCN2C(=O)[C@H](CO)NC(=O)[C@H](CCCNC(=N)N)NC(=O)[C@@H]2CSSC[C@H](NC(=O)[C@@H](N)[C@@H](C)O)C(=O)N[C@@H](CCCNC(=N)N)C(=O)N[C@@H](CO)C(=O)N[C@@H](CO)C(=O)NCC(=O)N[C@@H](CCCNC(=N)N)C(=O)N[C@@H](Cc3ccc(O)cc3)C(=O)N2)CSSC[C@@H](C(=O)N[C@H](C(=O)O)C(C)C)NC(=O)[C@H](C)NC(=O)[C@H](CC(=O)O)NC(=O)[C@H]([C@@H](C)O)NC1=O  230 nM
6. CC[C@H](C)[C@@H]1NC(=O)[C@H](CCCNC(=N)N)NC(=O)[C@H](CCCNC(=N)N)NC(=O)[C@@H](NC(=O)[C@H](Cc2ccc(O)cc2)NC(=O)[C@H](C)NC(=O)[C@H](C)NC(=O)[C@H](CCCNC(=N)N)NC(=O)[C@H](CCCNC(=N)N)NC(=O)[C@H](CC(=O)O)NC(=O)[C@H](Cc2ccc(O)cc2)NC(=O)[C@@H]2CCCN2C(=O)[C@H](CO)NC(=O)[C@H](CCCNC(=N)N)NC(=O)[C@@H]2CSSC[C@H](NC(=O)[C@@H](N)[C@@H](C)O)C(=O)N[C@@H](CCCNC(=N)N)C(=O)N[C@@H](CO)C(=O)N[C@@H](CO)C(=O)NCC(=O)N[C@@H](CCCNC(=N)N)C(=O)N[C@@H](Cc3ccc(O)cc3)C(=O)N2)CSSC[C@@H](C(=O)N[C@H](C(=O)O)C(C)C)NC(=O)[C@H](C)NC(=O)[C@H](CC(=O)O)NC(=O)[C@H]([C@@H](C)O)NC1=O  230 nM
7. CC[C@H](C)[C@@H]1NC(=O)[C@H](C)NC(=O)[C@H](C)NC(=O)[C@@H](NC(=O)[C@H](Cc2ccc(O)cc2)NC(=O)[C@H](CCCNC(=N)N)NC(=O)[C@H](CCCNC(=N)N)NC(=O)[C@H](CCCNC(=N)N)NC(=O)[C@H](CCCNC(=N)N)NC(=O)[C@H](CC(=O)O)NC(=O)[C@H](Cc2ccc(O)cc2)NC(=O)[C@@H]2CCCN2C(=O)[C@H](CO)NC(=O)[C@H](CCCNC(=N)N)NC(=O)[C@@H]2CSSC[C@H](NC(=O)[C@@H](N)[C@@H](C)O)C(=O)N[C@@H](CCCNC(=N)N)C(=O)N[C@@H](CO)C(=O)N[C@@H](CO)C(=O)NCC(=O)N[C@@H](CCCNC(=N)N)C(=O)N[C@@H](Cc3ccc(O)cc3)C(=O)N2)CSSC[C@@H](C(=O)N[C@H](C(=O)O)C(C)C)NC(=O)[C@H](C)NC(=O)[C@H](CC(=O)O)NC(=O)[C@H]([C@@H](C)O)NC1=O  180 nM
8. CC[C@H](C)[C@@H]1NC(=O)[C@H](CCCNC(=N)N)NC(=O)[C@H](CCCNC(=N)N)NC(=O)[C@@H](NC(=O)[C@H](Cc2ccc(O)cc2)NC(=O)[C@H](CCCNC(=N)N)NC(=O)[C@H](C)NC(=O)[C@H](C)NC(=O)[C@H](CCCNC(=N)N)NC(=O)[C@H](CC(=O)O)NC(=O)[C@H](Cc2ccc(O)cc2)NC(=O)[C@@H]2CCCN2C(=O)[C@H](CO)NC(=O)[C@H](CCCNC(=N)N)NC(=O)[C@@H]2CSSC[C@H](NC(=O)[C@@H](N)[C@@H](C)O)C(=O)N[C@@H](CCCNC(=N)N)C(=O)N[C@@H](CO)C(=O)N[C@@H](CO)C(=O)NCC(=O)N[C@@H](CCCNC(=N)N)C(=O)N[C@@H](Cc3ccc(O)cc3)C(=O)N2)CSSC[C@@H](C(=O)N[C@H](C(=O)O)C(C)C)NC(=O)[C@H](C)NC(=O)[C@H](CC(=O)O)NC(=O)[C@H]([C@@H](C)O)NC1=O  130 nM
